Species on record: Rattus norvegicus
Assay: DrugMatrix - Regimen: Daily Repeat
Format: toxicity, organism-based, Sprague-Dawley
Design: regimen Daily Repeat, gender Male, age 6-8 weeks
Conditions: in vivo, po, 20 mg/kg, route oral GAVAGE, dose level Low, […]; for ABSOLUTE BASOPHIL / ABSOLUTE EOSINOPHIL / ABSOLUTE LYMPHOCYTE / ABSOLUTE MONOCYTE / ABSOLUTE SEGMENTED NEUTROPHIL / BASOPHIL / EOSINOPHIL / ERYTHROCYTE COUNT / HEMATOCRIT / HEMOGLOBIN / LEUKOCYTE COUNT / LYMPHOCYTE / MEAN CORPUSCULAR HEMOGLOBIN / MEAN CORPUSCULAR HEMOGLOBIN CONCENTRATION / MEAN CORPUSCULAR VOLUME / MONOCYTE / NEUTROPHIL / NUCLEATED RED BLOOD CELLS / PLATELET COUNT: tissue Blood; for ALANINE AMINOTRANSFERASE / ALBUMIN / ALKALINE PHOSPHATASE / ASPARTATE AMINOTRANSFERASE / BLOOD UREA NITROGEN / CARBON DIOXIDE / CHLORIDE / CHOLESTEROL / CREATINE PHOSPHOKINASE / CREATININE / GLUCOSE / LACTATE DEHYDROGENASE / LIPASE / PHOSPHORUS / POTASSIUM / SODIUM / TOTAL BILIRUBIN / TOTAL PROTEIN / URIC ACID: tissue Plasma

**Q.** Which results are given for O=c1c(-c2ccc(O)cc2)coc2cc(O)cc(O)c12 [GENISTEIN]?
**A.** ABSOLUTE BASOPHIL (72 h, time 3 day): 0 CELLS/uL; ABSOLUTE EOSINOPHIL (72 h, time 3 day): 0 CELLS/uL; ABSOLUTE LYMPHOCYTE (72 h, time 3 day): 8352.33 CELLS/uL; ABSOLUTE MONOCYTE (72 h, time 3 day): 117.33 CELLS/uL; ABSOLUTE SEGMENTED NEUTROPHIL (72 h, time 3 day): 697 CELLS/uL; BASOPHIL (72 h, time 3 day): 0%; EOSINOPHIL (72 h, time 3 day): 0%; ERYTHROCYTE COUNT (72 h, time 3 day): 4.71 x10E6/uL; HEMATOCRIT (72 h, time 3 day): 30.2%; HEMOGLOBIN (72 h, time 3 day): 12.1 G/DL; LEUKOCYTE COUNT (72 h, time 3 day): 9.17 x10E3/uL; LYMPHOCYTE (72 h, time 3 day): 91%; MEAN CORPUSCULAR HEMOGLOBIN (72 h, time 3 day): 25.73 pg; MEAN CORPUSCULAR HEMOGLOBIN CONCENTRATION (72 h, time 3 day): 40.07 G/DL; MEAN CORPUSCULAR VOLUME (72 h, time 3 day): 64.27 fL; MONOCYTE (72 h, time 3 day): 1.33%; NEUTROPHIL (72 h, time 3 day): 7.67%; NUCLEATED RED BLOOD CELLS (72 h, time 3 day): 0 /100WBC; PLATELET COUNT (72 h, time 3 day): 970.67 x10E3/uL; ALANINE AMINOTRANSFERASE (72 h, time 3 day): 69.33 u/L; ALBUMIN (72 h, time 3 day): 3.73 G/DL; ALKALINE PHOSPHATASE (72 h, time 3 day): 415.33 u/L; ASPARTATE AMINOTRANSFERASE (72 h, time 3 day): 87 u/L; BLOOD UREA NITROGEN (72 h, time 3 day): 14 mg/dL; CARBON DIOXIDE (72 h, time 3 day): 31.33 mmol/L; CHLORIDE (72 h, time 3 day): 101.33 MEQ/L; CHOLESTEROL (72 h, time 3 day): 55.33 mg/dL; CREATINE PHOSPHOKINASE (72 h, time 3 day): 256 u/L; CREATININE (72 h, time 3 day): 0.16 mg/dL; GLUCOSE (72 h, time 3 day): 157.33 mg/dL; LACTATE DEHYDROGENASE (72 h, time 3 day): 72 u/L; LIPASE (72 h, time 3 day): 10.33 u/L; PHOSPHORUS (72 h, time 3 day): 9.33 mg/dL; POTASSIUM (72 h, time 3 day): 5.54 MEQ/L; SODIUM (72 h, time 3 day): 144.67 MEQ/L; TOTAL BILIRUBIN (72 h, time 3 day): 0.2 mg/dL; TOTAL PROTEIN (72 h, time 3 day): 5.43 G/DL; URIC ACID (72 h, time 3 day): 0.37 mg/dL; ABSOLUTE BASOPHIL (120 h, time 5 day): 0 CELLS/uL; ABSOLUTE EOSINOPHIL (120 h, time 5 day): 0 CELLS/uL; ABSOLUTE LYMPHOCYTE (120 h, time 5 day): 8287 CELLS/uL; ABSOLUTE MONOCYTE (120 h, time 5 day): 65 CELLS/uL; ABSOLUTE SEGMENTED NEUTROPHIL (120 h, time 5 day): 1548 CELLS/uL; BASOPHIL (120 h, time 5 day): 0%; EOSINOPHIL (120 h, time 5 day): 0%; ERYTHROCYTE COUNT (120 h, time 5 day): 4.93 x10E6/uL; HEMATOCRIT (120 h, time 5 day): 31.57%; HEMOGLOBIN (120 h, time 5 day): 12.13 G/DL; LEUKOCYTE COUNT (120 h, time 5 day): 9.9 x10E3/uL; LYMPHOCYTE (120 h, time 5 day): 84%; MEAN CORPUSCULAR HEMOGLOBIN (120 h, time 5 day): 24.67 pg; MEAN CORPUSCULAR HEMOGLOBIN CONCENTRATION (120 h, time 5 day): 38.43 G/DL; MEAN CORPUSCULAR VOLUME (120 h, time 5 day): 64.13 fL; MONOCYTE (120 h, time 5 day): 1%; NEUTROPHIL (120 h, time 5 day): 15%; NUCLEATED RED BLOOD CELLS (120 h, time 5 day): 0.33 /100WBC; PLATELET COUNT (120 h, time 5 day): 1213.67 x10E3/uL; ALANINE AMINOTRANSFERASE (120 h, time 5 day): 61.33 u/L; ALBUMIN (120 h, time 5 day): 3.83 G/DL; ALKALINE PHOSPHATASE (120 h, time 5 day): 296.67 u/L; ASPARTATE AMINOTRANSFERASE (120 h, time 5 day): 87.33 u/L; BLOOD UREA NITROGEN (120 h, time 5 day): 17 mg/dL; CARBON DIOXIDE (120 h, time 5 day): 33 mmol/L; CHLORIDE (120 h, time 5 day): 98.5 MEQ/L; CHOLESTEROL (120 h, time 5 day): 69.67 mg/dL; CREATINE PHOSPHOKINASE (120 h, time 5 day): 277.33 u/L; CREATININE (120 h, time 5 day): 0.12 mg/dL; GLUCOSE (120 h, time 5 day): 143.33 mg/dL; LACTATE DEHYDROGENASE (120 h, time 5 day): 87.67 u/L; LIPASE (120 h, time 5 day): 11.67 u/L; PHOSPHORUS (120 h, time 5 day): 10.4 mg/dL; POTASSIUM (120 h, time 5 day): 5.69 MEQ/L; SODIUM (120 h, time 5 day): 143.35 MEQ/L; TOTAL BILIRUBIN (120 h, time 5 day): 0.0667 mg/dL; TOTAL PROTEIN (120 h, time 5 day): 5.57 G/DL; URIC ACID (120 h, time 5 day): 0.43 mg/dL
